In patent US9260425B2 (Genetech, Inc., priority 2011, dated 2016):
Like-named read-outs stand apart in the source and are kept apart here.

Experiments:
BaF3 parental cells = assay: In vitro cell proliferation potency assay, BaF3 parental line with IL-3 (Cell Titer Glo); assay type: cell-based, murine; settings: Mus musculus, 2 ng/mL mIL-3, incubated overnight, read-out: Prolif. BaF3 IL3 (IC50)
Description: (§1) In Vitro Cell Proliferation Potency Assays
(§2) BaF3 parental line was obtained from the DSMZ repository. BaF3 lines transfected with PIM-1 or PIM-2 were generated. Mouse IL-3 was purchased from R&D Systems. G418 was purchased from Clontech. Media for BaF3 parental line contained RPMI, 10% FBS, 2 mM L-Glutamine, 2 ng/mL mIL-3. Media for BaF3 PIM1 & 2 lines contained RPMI, 10% FBS, 2 mM L-Glutamine, […]. Media for MM1.S (multiple myeloma cells) line contained RPMI, 10% FBS, 2 mM L-Glutamine.
(§3) BaF3, a murine interleukin-3 dependent pro-B cell line, parental cells, BaF3 PIM1 cells, BaF3 PIM-2 cells, and MM1.S (multiple myeloma) cells were seeded at 2 k/well, 5 k/well, 5 k/well, and 10 k/well respectively, in a 384-well plate, at 45 μL/well. Test compound was added at 5 μL/well. BaF3 cells (parental and transfected) were incubated overnight, while MM1.S cells were incubated for 72 hours at 37° C., 5% CO2. Cell Titer Glo Reagent (Promega) was added at 50 μL/well, the plates were incubated for 30 minutes, and their luminescence read on an HT Analyst. IC50/EC50 values for the test compound were calculated.

[1] = system: MM1.S (multiple myeloma) cells; assay: In vitro cell proliferation potency assay, MM1.S cells (Cell Titer Glo); assay type: cell-based; settings: Homo sapiens, 72 hours, read-out: Prolif. MM1S ATP (EC50)
Description: as §1, §2, §3

BaF3 PIM1 cells = assay: In vitro cell proliferation potency assay, BaF3 line transfected with PIM-1 (Cell Titer Glo); assay type: cell-based, murine; settings: incubated overnight, read-out: Prolif. BaF3 PIM-1 (IC50)
Description: as §1
as §2, with “BaF3 lines transfected with PIM-1 or PIM-2 were generated.” left out
as §3

Pim-1 = Pim-1 (Homo sapiens (Human), UniProt P11309); assay: Pim kinase binding activity assay (Example 901), PIM-1 enzyme, Caliper microfluidic peptide phosphorylation; assay type: biochemical; settings: 20 pM PIM-1, 10 μM ATP, 1 μM FAM-peptide, 90 minutes at room temperature
Method in brief: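 PIM-1 at 20 pM phosphorylated 1 μM FAM-labelled Pim peptide with 10 μM ATP in HEPES pH 7.2, MgCl2, Tween 20 and DTT for 90 min at room temperature. EDTA stopped the reaction, and product and substrate were resolved by microfluidic electrophoresis (ex 488/em 530 nm). Ki was derived from substrate conversion.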

Chain of Pim-1 (P11309 whole entry): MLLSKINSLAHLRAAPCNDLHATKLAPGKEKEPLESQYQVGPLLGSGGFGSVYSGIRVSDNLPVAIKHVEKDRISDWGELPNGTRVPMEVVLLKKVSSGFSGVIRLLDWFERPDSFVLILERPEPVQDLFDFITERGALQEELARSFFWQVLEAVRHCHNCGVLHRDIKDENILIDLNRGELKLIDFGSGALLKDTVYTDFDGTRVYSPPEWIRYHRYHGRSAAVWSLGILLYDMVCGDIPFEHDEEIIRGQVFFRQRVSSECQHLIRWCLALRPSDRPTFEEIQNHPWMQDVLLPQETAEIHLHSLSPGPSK

Row | Structure (SMILES) | IC50 (BaF3 parental cells) | EC50 [1] | IC50 (BaF3 PIM1 cells; Mus musculus) | Ki (Pim-1) | IC50 (BaF3 PIM1 cells)
1 | COCCn1cc(-c2cc3c(-c4cccc(N5CCNCC5)n4)n[nH]c3cn2)cn1 [Example 382, 5-(1-(2-methoxyethyl)-1H-pyrazol-4-yl)-3-(6-(piperazin-1-yl)pyridin-2-yl)-1H-pyrazolo[3,4-c]pyridine] | 17000 nM | 3200 nM | 274 nM | – | –
2 | N[C@@H]1CCCN(c2cccc(-c3n[nH]c4cnc(-c5cccnc5)cc34)n2)C1 [Example 149, (R)-1-(6-(5-(pyridin-3-yl)-1H-pyrazolo[3,4-c]pyridin-3-yl)pyridin-2-yl)piperidin-3-amine] | 1500 nM | 166 nM | 261 nM | 0.027 nM | –
3 | Fc1ccccc1-c1n[nH]c2cnc(-c3cccnc3)cc12 [Example 117, 3-(2-fluorophenyl)-5-(pyridin-3-yl)-1H-pyrazolo[3,4-c]pyridine] | 12900 nM | – | 18800 nM | – | –
4 | Cn1cc(-c2cc3c(-c4cccc(N5CCC[C@H](N)C5)n4)n[nH]c3cn2)cn1 [Example 173, (S)-1-(6-(5-(1-methyl-1H-pyrazol-4-yl)-1H-pyrazolo[3,4-c]pyridin-3-yl)pyridin-2-yl)piperidin-3-amine] | 5700 nM | 376 nM | – | – | 251 nM
5 | c1cc(-c2n[nH]c3cnc(-c4cnn(C5CCC5)c4)cc23)nc(N2CCNCC2)c1 [Example 390, 5-(1-cyclobutyl-1H-pyrazol-4-yl)-3-(6-(piperazin-1-yl)pyridin-2-yl)-1H-pyrazolo[3,4-c]pyridine] | 5700 nM | 130 nM | 58.5 nM | 0.132 nM | –
6 | c1ccc(-c2n[nH]c3cnc(-c4cccnc4)cc23)cc1 [Example 116, 3-phenyl-5-(pyridin-3-yl)-1H-pyrazolo[3,4-c]pyridine] | 13700 nM | – | – | – | –
7 | Cn1cc(-c2cc3c(-c4ccccc4F)n[nH]c3cn2)cn1 [Example 129, 3-(2-fluorophenyl)-5-(1-methyl-1H-pyrazol-4-yl)-1H-pyrazolo[3,4-c]pyridine] | 5600 nM | – | 5200 nM | 7.85 nM | –
8 | NC1CCN(c2nc(-c3n[nH]c4cnc(-c5cccnc5)cc34)ccc2Cl)CC1 [Example 241, 1-(3-chloro-6-(5-(pyridin-3-yl)-1H-pyrazolo[3,4-c]pyridin-3-yl)pyridin-2-yl)piperidin-4-amine] | 1300 nM | 57.3 nM | 584 nM | 0.096 nM | –
9 | N[C@@H]1CCCN(c2cccc(-c3n[nH]c4cnc(-c5cncs5)cc34)n2)C1 [Example 350, (R)-1-(6-(5-(thiazol-5-yl)-1H-pyrazolo[3,4-c]pyridin-3-yl)pyridin-2-yl)piperidin-3-amine] | 3600 nM | 287 nM | 188 nM | – | –
10 | CCn1cc(-c2cc3c(-c4cccc(N5CCNCC5)n4)n[nH]c3cn2)cn1 [Example 356, 5-(1-ethyl-1H-pyrazol-4-yl)-3-(6-(piperazin-1-yl)pyridin-2-yl)-1H-pyrazolo[3,4-c]pyridine] | 5400 nM | 638 nM | 76.6 nM | 0.073 nM | –
11 | N[C@H]1CCN(c2cncc(-c3cc4c(-c5ccccc5F)n[nH]c4cn3)c2)C1 [Example 190, (S)-1-(5-(3-(2-fluorophenyl)-1H-pyrazolo[3,4-c]pyridin-5-yl)pyridin-3-yl)pyrrolidin-3-amine] | 1800 nM | 67.2 nM | 159 nM | 0.27 nM | –
12 | NC1CCN(c2cccc(-c3n[nH]c4cnc(-c5cccnc5)cc34)n2)CC1 [Example 144, 1-(6-(5-(pyridin-3-yl)-1H-pyrazolo[3,4-c]pyridin-3-yl)pyridin-2-yl)piperidin-4-amine] | 3300 nM | 2200 nM | 130 nM | 0.0839 nM | –
13 | Cc1cncc(-c2cc3c(-c4cccc(N5CCNCC5)n4)n[nH]c3cn2)n1 [Example 505, 5-(6-methylpyrazin-2-yl)-3-(6-(piperazin-1-yl)pyridin-2-yl)-1H-pyrazolo[3,4-c]pyridine] | 2300 nM | 97.9 nM | 40.2 nM | 0.01 nM | –
14 | Cn1cc(-c2cc3c(-c4ccc(Br)c(N5CCC[C@H](N)C5)n4)n[nH]c3cn2)cn1 [Example 376, (S)-1-(3-bromo-6-(5-(1-methyl-1H-pyrazol-4-yl)-1H-pyrazolo[3,4-c]pyridin-3-yl)pyridin-2-yl)piperidin-3-amine] | 4100 nM | 356 nM | 30.9 nM | 0.009 nM | –
15 | N[C@@H]1CCCN(c2cncc(-c3cc4c(-c5ccccc5F)n[nH]c4cn3)n2)C1 [Example 153, (R)-1-(6-(3-(2-fluorophenyl)-1H-pyrazolo[3,4-c]pyridin-5-yl)pyrazin-2-yl)piperidin-3-amine] | 2500 nM | 436 nM | 28 nM | – | –
16 | N[C@H]1CCCN(c2cccc(-c3n[nH]c4cnc(-c5cncs5)cc34)n2)C1 [Example 349, (S)-1-(6-(5-(thiazol-5-yl)-1H-pyrazolo[3,4-c]pyridin-3-yl)pyridin-2-yl)piperidin-3-amine] | 3400 nM | 393 nM | 681 nM | – | –
17 | NC[C@H]1CCN(c2cccc(-c3n[nH]c4cnc(-c5cccnc5)cc34)n2)C1 [Example 270, (R)-(1-(6-(5-(pyridin-3-yl)-1H-pyrazolo[3,4-c]pyridin-3-yl)pyridin-2-yl)pyrrolidin-3-yl)methanamine] | 13100 nM | 707 nM | 478 nM | – | –
18 | N[C@H]1CCCN(c2cncc(-c3cc4c(-c5ccccc5F)n[nH]c4cn3)n2)C1 [Example 152, (S)-1-(6-(3-(2-fluorophenyl)-1H-pyrazolo[3,4-c]pyridin-5-yl)pyrazin-2-yl)piperidin-3-amine] | 2700 nM | 631 nM | 47.1 nM | – | –
19 | Cn1cc(-c2cc3c(-c4ccc(Br)c(N5CCC[C@@H](O)C5)n4)n[nH]c3cn2)cn1 [Example 394, (R)-1-(3-bromo-6-(5-(1-methyl-1H-pyrazol-4-yl)-1H-pyrazolo[3,4-c]pyridin-3-yl)pyridin-2-yl)piperidin-3-ol] | – | – | – | 0.316 nM | –
20 | Cn1cc(-c2cc3c(-c4cccc(N5CCC(CN)CC5)n4)n[nH]c3cn2)cn1 [Example 182, (1-(6-(5-(1-methyl-1H-pyrazol-4-yl)-1H-pyrazolo[3,4-c]pyridin-3-yl)pyridin-2-yl)piperidin-4-yl)methanamine] | – | – | – | 0.085 nM | –
21 | OCCN1CCN(c2cccc(-c3n[nH]c4cnc(-c5cccnc5)cc34)n2)CC1 [Example 282, 2-(4-(6-(5-(pyridin-3-yl)-1H-pyrazolo[3,4-c]pyridin-3-yl)pyridin-2-yl)piperazin-1-yl)ethanol] | – | – | – | 0.164 nM | –
22 | CCn1cc(-c2cc3c(-c4cccc(N5CCC[C@@H](NC)C5)n4)n[nH]c3cn2)cn1 [Example 482, (R)-1-(6-(5-(1-ethyl-1H-pyrazol-4-yl)-1H-pyrazolo[3,4-c]pyridin-3-yl)pyridin-2-yl)-N-methylpiperidin-3-amine] | – | – | – | 0.147 nM | –
23 | CCn1cc(-c2cc3c(-c4cccc(NC5CCCC(N)C5)n4)n[nH]c3cn2)cn1 (centres unmarked) [Example 461, N1-(6-(5-(1-ethyl-1H-pyrazol-4-yl)-1H-pyrazolo[3,4-c]pyridin-3-yl)pyridin-2-yl)cyclohexane-1,3-diamine] | – | – | – | 0.0593 nM | –
24 | C=C(C)c1ccc(-c2n[nH]c3cnc(-c4cccnc4)cc23)nc1N1CCC[C@H](N)C1 [Example 308, (S)-1-(3-(prop-1-en-2-yl)-6-(5-(pyridin-3-yl)-1H-pyrazolo[3,4-c]pyridin-3-yl)pyridin-2-yl)piperidin-3-amine] | – | – | – | 0.01 nM | –
25 | Cn1cc(-c2cc3c(-c4cccc(N5CCC(N)(C(F)(F)F)C5)n4)n[nH]c3cn2)cn1 (centres unmarked) [Example 286, 1-(6-(5-(1-methyl-1H-pyrazol-4-yl)-1H-pyrazolo[3,4-c]pyridin-3-yl)pyridin-2-yl)-3-(trifluoromethyl)pyrrolidin-3-amine] | – | – | – | 0.093 nM | –
26 | NC(=O)Cc1cc2c(-c3cccc(N4CCNCC4)n3)n[nH]c2cn1 [Example 253, 2-(3-(6-(piperazin-1-yl)pyridin-2-yl)-1H-pyrazolo[3,4-c]pyridin-5-yl)acetamide] | – | – | – | 171 nM | –
27 | N#Cc1cc2c(-c3cccc(N4CCC[C@H](N)C4)n3)n[nH]c2cn1 [Example 399, (S)-3-(6-(3-aminopiperidin-1-yl)pyridin-2-yl)-1H-pyrazolo[3,4-c]pyridine-5-carbonitrile] | – | – | – | 22.6 nM | –
